This is an account of results in patent US20260250290A1 (BRISTOL-MYERS SQUIBB COMPANY, priority 2023, published 2026).

The experiment concerns the target T1, SGK1 (Homo sapiens, UniProt O00141).
T1 sequence (O00141 1-431): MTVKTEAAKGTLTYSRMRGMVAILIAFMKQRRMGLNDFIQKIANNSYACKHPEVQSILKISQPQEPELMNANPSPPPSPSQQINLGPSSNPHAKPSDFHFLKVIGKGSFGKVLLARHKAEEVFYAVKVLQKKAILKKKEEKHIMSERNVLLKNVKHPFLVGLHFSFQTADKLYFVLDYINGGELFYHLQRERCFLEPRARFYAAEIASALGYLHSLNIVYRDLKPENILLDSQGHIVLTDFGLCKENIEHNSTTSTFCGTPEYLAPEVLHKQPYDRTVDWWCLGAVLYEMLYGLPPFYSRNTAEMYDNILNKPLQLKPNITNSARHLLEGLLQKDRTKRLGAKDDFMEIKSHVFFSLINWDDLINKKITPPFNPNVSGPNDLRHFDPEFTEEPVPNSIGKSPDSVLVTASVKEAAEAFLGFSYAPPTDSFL
As to the kind of experiment: SGK1 inhibition Assay B (Echo mass spectrometry of phosphorylated peptide product). The class given is biochemical. The following applies: 60 min at room temperature.

Counter-ions that a name gives are not always drawn.

Protocol: 20 μl of 2 nM SGK1 were added in 20 mM Hepes+10 mM MgCl2+0015% Brij-35+4 mM DTT+0.05 mg/ml BSA and the reaction incubated for 60 min at room temperature. The enzymatic reaction was quenched by addition 10 μl of 1% Formic Acid+150 nM Internal Standard: FITC-(Ahx)KKRNRR(pS)VA^—OH (final concentration). The plates are spun down at 3700 RPM for 10 minutes to remove all precipitate. Samples were loaded on to the Sciex Echo Mass Spec attached to a Sciex 6500 equipped with ESI and was used to analyze the phosphorylated peptide product. MRM transition of product and internal standard were monitored at m/z 755 to 937.5 and m/z 757.7 to 941.3 respectively. Peak area of analyte was normalized with internal standard.
Dose response curves were generated to determine the concentration required for inhibiting 50% of the enzyme activity. Compounds were dissolved at 10 mM in dimethylsulfoxide (DMSO) and evaluated at eleven concentrations.

Turning to `Cc1cc(O[C@@H]2C[C@H]3CC[C@@H](C2)N3C)c(C(=O)N[C@@H]2CCCN(c3cc(-c4ccc(-n5cnnn5)c(F)c4)n4ncnc(N)c34)C2)s1` [Example 847, N-((R)-1-(4-amino-7-(3-fluoro-4-(1H-tetrazol-1-yl)phenyl)pyrrolo[2,1-f][1,2,4]triazin-5-yl)piperidin-3-yl)-5-methyl-3-(((1R,3s,5S)-8-methyl-8-azabicyclo[3.2.1]octan-3-yl)oxy)thiophene-2-carboxamide, TFA salt], the midpoint of inhibition, the IC50, lay at 2 nM. This lies in the single-digit nanomolar range.
In the case of `Cc1cc(O[C@@H]2C[C@H]3CC[C@@H](C2)N3C)c(C(=O)N[C@@H]2CCCN(c3cc(-c4cnn(C(F)F)c4)n4ncnc(N)c34)C2)s1` [Example 848, N-((R)-1-(4-amino-7-(1-(difluoromethyl)-1H-pyrazol-4-yl)pyrrolo[2,1-f][1,2,4]triazin-5-yl)piperidin-3-yl)-5-methyl-3-(((1R,3s,5S)-8-methyl-8-azabicyclo[3.2.1]octan-3-yl)oxy)thiophene-2-carboxamide, TFA salt] it was 6 nM; in that of `CN1CCN(c2nccc(C(=O)N[C@@H]3CCCN(c4cc(-c5ccc(-n6cnnn6)c(F)c5)n5ncnc(N)c45)C3)n2)CC1` [Example 849, (R)-N-(1-(4-amino-7-(3-fluoro-4-(1H-tetrazol-1-yl)phenyl)pyrrolo[2,1-f][1,2,4]triazin-5-yl)piperidin-3-yl)-2-(4-methylpiperazin-1-yl)pyrimidine-4-carboxamide], 2 nM.
In the case of `Cc1cc(-c2cc(N3CCC[C@@H](NC(=O)c4ccnc(N5CCN(C)CC5)n4)C3)c3c(N)ncnn23)ccc1-n1cnnn1` [Example 850, (R)-N-(1-(4-amino-7-(3-methyl-4-(1H-tetrazol-1-yl)phenyl)pyrrolo[2,1-f][1,2,4]triazin-5-yl)piperidin-3-yl)-2-(4-methylpiperazin-1-yl)pyrimidine-4-carboxamide] it was 10 nM.
In the case of `CC(=O)c1ccc(-c2cc(N3CCC[C@@H](NC(=O)c4ccnc(N5CCN(C)CC5)n4)C3)c3c(N)ncnn23)cn1` [Example 851, (R)-N-(1-(7-(6-acetylpyridin-3-yl)-4-aminopyrrolo[2,1-f][1,2,4]triazin-5-yl)piperidin-3-yl)-2-(4-methylpiperazin-1-yl)pyrimidine-4-carboxamide] it was 18 nM; in that of `CN1CCN(c2nccc(C(=O)N[C@@H]3CCCN(c4cc(-c5ccc(-n6cnnn6)c(CO)c5)n5ncnc(N)c45)C3)n2)CC1` [Example 852, (R)-N-(1-(4-amino-7-(3-(hydroxymethyl)-4-(1H-tetrazol-1-yl)phenyl)pyrrolo[2,1-f][1,2,4]triazin-5-yl)piperidin-3-yl)-2-(4-methylpiperazin-1-yl)pyrimidine-4-carboxamide, TFA salt], 10 nM; in that of `CN1CCN(c2nccc(C(=O)N[C@@H]3CCCN(c4cc(-c5cc(F)c(-n6cnnn6)cc5F)n5ncnc(N)c45)C3)n2)CC1` [Example 853, (R)-N-(1-(4-amino-7-(2,5-difluoro-4-(1H-tetrazol-1-yl)phenyl)pyrrolo[2,1-f][1,2,4]triazin-5-yl)piperidin-3-y1)-2-(4-methylpiperazin-1-yl)pyrimidine-4-carboxamide], 12 nM.
Turning to `CN1CCN(c2nccc(C(=O)N[C@@H]3CCCN(c4cc(-c5cc(F)c(-n6cnnn6)c(F)c5)n5ncnc(N)c45)C3)n2)CC1` [Example 854], the half-inhibitory concentration (IC50) was 1 nM. Against the preceding compound, the IC50 is about 12-fold lower.
As for `COc1cc(-c2cc(N3CCC[C@@H](NC(=O)c4ccnc(N5CCN(C)CC5)n4)C3)c3c(N)ncnn23)ccc1-n1cnnn1` [Example 855, (R)-N-(1-(4-amino-7-(3-methoxy-4-(1H-tetrazol-1-yl)phenyl)pyrrolo[2,1-f][1,2,4]triazin-5-yl)piperidin-3-yl)-2-(4-methylpiperazin-1-yl)pyrimidine-4-carboxamide], the figure is 14 nM.
As for `CN1CCN(c2nccc(C(=O)N[C@@H]3CCCN(c4cc(-c5cnc(-n6cnnn6)nc5)n5ncnc(N)c45)C3)n2)CC1` [Example 856, (R)-N-(1-(7-(2-(1H-tetrazol-1-yl)pyrimidin-5-yl)-4-aminopyrrolo[2,1-f][1,2,4]triazin-5-yl)piperidin-3-yl)-2-(4-methylpiperazin-1-yl)pyrimidine-4-carboxamide], the figure is 16 nM; as for `CN1CCN(c2nccc(C(=O)N[C@@H]3CCCN(c4cc(-c5cnc(-n6cnnn6)c(F)c5)n5ncnc(N)c45)C3)n2)CC1` [Example 858], 4 nM.
In the case of `COC(=O)N1CC=C(c2cc(N3CCC[C@@H](NC(=O)c4ccnc(N5CCN(C)CC5)n4)C3)c3c(N)ncnn23)C1` [Example 859, methyl (R)-3-(4-amino-5-(3-(2-(4-methylpiperazin-1-yl)pyrimidine-4-carboxamido)piperidin-1-yl)pyrrolo[2,1-f][1,2,4]triazin-7-yl)-2,5-dihydro-1H-pyrrole-1-carboxylate], half-maximal inhibition (IC50) required 5 nM.
In the case of `N#Cc1ccc(C(=O)N[C@@H]2CCCN(c3cc(-c4cnc(-n5cnnn5)c(F)c4)n4ncnc(N)c34)C2)s1` [Example 860, (R)-N-(1-(4-amino-7-(5-fluoro-6-(1H-tetrazol-1-yl)pyridin-3-yl)pyrrolo[2,1-f][1,2,4]triazin-5-yl)piperidin-3-yl)-5-cyanothiophene-2-carboxamide] it was 3 nM.
In turn, `CC(=O)N1CC=C(c2cc(N3CCC[C@@H](NC(=O)c4sc(Cl)cc4OCC45CCCN4CCC5)C3)c3c(N)ncnn23)C1` [Example 917, N-[(3R)-1-[7-(1-acetyl-2,5-dihydro-1H-pyrrol-3-yl)-4-aminopyrrolo[2,1-f][1,2,4]triazin-5-yl]piperidin-3-yl]-5-chloro-3-[(hexahydro-1H-pyrrolizin-7a-yl)methoxy]thiophene-2-carboxamide] registered an IC50 of 3 nM. In other words, the single-digit nanomolar range.
In the case of `Cc1nc(O[C@@H]2CC[C@H]3[C@H](CCN3C)C2)c(C(=O)N[C@@H]2CCCN(c3cc(-c4ccc(C(N)=O)c(F)c4)n4ncnc(N)c34)C2)s1` [Example 918, 4-{[(3aR,5R,7aS)-1-methyl-octahydro-1H-indol-5-yl]oxy}-N-[(3R)-1-[4-amino-7-(4-carbamoyl-3-fluorophenyl)pyrrolo[2,1-f][1,2,4]triazin-5-yl]piperidin-3-yl]-2-methyl-1,3-thiazole-5-carboxamide] it was 2 nM; in that of `Cc1nc(OCCCN(C)C)c(C(=O)N[C@@H]2CCCN(c3cc(-c4cnc(-n5cnnn5)c(F)c4)n4ncnc(N)c34)C2)s1` [Example 919, N-[(3R)-1-{4-amino-7-[5-fluoro-6-(1H-1,2,3,4-tetrazol-1-yl)pyridin-3-yl]pyrrolo[2,1-f][1,2,4]triazin-5-yl}piperidin-3-yl]-4-[3-(dimethylamino)propoxy]-2-methyl-1,3-thiazole-5-carboxamide], 5 nM.
Take `CC(=O)N1CC=C(c2cc(N3CCC[C@@H](NC(=O)c4sc(C#N)cc4O[C@@H]4C[C@H]5CC[C@@H](C4)N5C)C3)c3c(N)ncnn23)C1` [Example 920, N—((R)-1-(7-(1-acetyl-2,5-dihydro-1H-pyrrol-3-yl)-4-aminopyrrolo[2,1-f][1,2,4]triazin-5-yl)piperidin-3-yl)-5-cyano-3-(((1R,3s,5S)-8-methyl-8-azabicyclo[3.2.1]octan-3-yl)oxy)thiophene-2-carboxamide]: 2 nM corresponded to half-maximal inhibition (IC50).
Compound `CC(=O)N1CC=C(c2cc(N3CCC[C@@H](NC(=O)c4sc(Cl)cc4OCC(C)(C)O)C3)c3c(N)ncnn23)C1` [Example 921, (R)—N-(1-(7-(1-acetyl-2,5-dihydro-1H-pyrrol-3-yl)-4-aminopyrrolo[2,1-f][1,2,4]triazin-5-yl)piperidin-3-yl)-5-chloro-3-(2-hydroxy-2-methylpropoxythiophene-2-carboxamide TFA salt] showed an IC50 of 7 nM. Against the preceding compound, the IC50 is about 3.5-fold higher.
In the case of `CC(=O)N1CC=C(c2cc(N3CCC[C@@H](NC(=O)c4cc5[nH]ccc5s4)C3)c3c(N)ncnn23)C1` [Example 923, (R)—N-(1-(7-(1-acetyl-2,5-dihydro-1H-pyrrol-3-yl)-4-aminopyrrolo[2,1-f][1,2,4]triazin-5-yl)piperidin-3-yl)-4H-thieno[3,2-b]pyrrole-2-carboxamide] it was 1 nM.
In the case of `CN1[C@@H]2CC[C@H]1C[C@H](Oc1cc(Cl)sc1C(=O)N[C@@H]1CCCN(c3cc(-c4ccc5c(c4)COC5=O)n4ncnc(N)c34)C1)C2` [Example 924, N—((R)-1-(4-amino-7-(1-oxo-1,3-dihydroisobenzofuran-5-yl)pyrrolo[2,1-f][1,2,4]triazin-5-yl)piperidin-3-yl)-5-chloro-3-(((1R,3s,5S)-8-methyl-8-azabicyclo[3.2.1]octan-3-yl)oxy)thiophene-2-carboxamide] it was 0.9 nM.
As for `CN1[C@@H]2CC[C@H]1C[C@H](Oc1cc(Cl)sc1C(=O)N[C@@H]1C[C@@H](F)CN(c3cc(-c4ccc(-n5cnnn5)c(F)c4)n4ncnc(N)c34)C1)C2` [Example 925, N-((3R,5R)-1-(4-amino-7-(3-fluoro-4-(1H-tetrazol-1-yl)phenyl)pyrrolo[2,1-f][1,2,4]triazin-5-yl)-5-fluoropiperidin-3-yl)-5-chloro-3-(((1R,3s,5S)-8-methyl-8-azabicyclo[3.2.1]octan-3-yl)oxy)thiophene-2-carboxamide, TFA salt], the figure is 0.4 nM.
Turning to `CN1[C@@H]2CC[C@H]1C[C@H](Oc1cc(Cl)sc1C(=O)N[C@@H]1CCCN(c3cc(C4=CCOC4)n4ncnc(N)c34)C1)C2` [Example 926, N—((R)-1-(4-amino-7-(2,5-dihydrofuran-3-yl)pyrrolo[2,1-f][1,2,4]triazin-5-yl)piperidin-3-yl)-5-chloro-3-(((1R,3s,5S)-8-methyl-8-azabicyclo[3.2.1]octan-3-yl)oxy)thiophene-2-carboxamide, TFA salt], half-maximal inhibition (IC50) required 0.8 nM.
